Laboratory results as given in ChEMBL document CHEMBL4177690, “(E)-3-(3,4,5-Trimethoxyphenyl)-1-(pyridin-4-yl)prop-2-en-1-one, a heterocyclic chalcone is a potent and selective CYP1A1 inhibitor and cancer chemopreventive agent” (Bioorg Med Chem Lett, 2017).

What was measured:
Cytochrome P450 1A1 [1] = target: T1, Cytochrome P450 1A1 (Homo sapiens, UniProt P04798); assay: Inhibition of human CYP1A1 expressed in yeast microsomal membranes using 7-ethoxyresorufin as substrate measured after 10 mins by fluorescence assay; type: cell membranes
T1 sequence (P04798 whole entry): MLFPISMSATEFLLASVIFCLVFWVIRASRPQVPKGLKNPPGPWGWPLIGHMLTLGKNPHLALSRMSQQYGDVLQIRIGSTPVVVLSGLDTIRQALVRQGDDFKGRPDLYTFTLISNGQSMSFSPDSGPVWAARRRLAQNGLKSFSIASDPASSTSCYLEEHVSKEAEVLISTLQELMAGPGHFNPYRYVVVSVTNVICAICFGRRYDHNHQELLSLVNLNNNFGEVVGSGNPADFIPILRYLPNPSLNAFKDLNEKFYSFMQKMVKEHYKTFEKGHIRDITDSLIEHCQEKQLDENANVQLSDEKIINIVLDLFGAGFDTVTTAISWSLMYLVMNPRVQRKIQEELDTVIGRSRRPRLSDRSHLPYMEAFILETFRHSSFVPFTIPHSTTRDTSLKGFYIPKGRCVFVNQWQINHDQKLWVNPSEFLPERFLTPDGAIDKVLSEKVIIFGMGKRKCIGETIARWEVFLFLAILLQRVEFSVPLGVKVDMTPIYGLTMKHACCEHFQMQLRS

Cytochrome P450 1B1 [2] = target: T2, Cytochrome P450 1B1 (Homo sapiens, UniProt Q16678); assay: Inhibition of human CYP1B1 expressed in yeast microsomal membranes using 7-ethoxyresorufin as substrate measured after 10 mins by fluorescence assay; type: cell membranes
T2 sequence (Q16678 whole entry): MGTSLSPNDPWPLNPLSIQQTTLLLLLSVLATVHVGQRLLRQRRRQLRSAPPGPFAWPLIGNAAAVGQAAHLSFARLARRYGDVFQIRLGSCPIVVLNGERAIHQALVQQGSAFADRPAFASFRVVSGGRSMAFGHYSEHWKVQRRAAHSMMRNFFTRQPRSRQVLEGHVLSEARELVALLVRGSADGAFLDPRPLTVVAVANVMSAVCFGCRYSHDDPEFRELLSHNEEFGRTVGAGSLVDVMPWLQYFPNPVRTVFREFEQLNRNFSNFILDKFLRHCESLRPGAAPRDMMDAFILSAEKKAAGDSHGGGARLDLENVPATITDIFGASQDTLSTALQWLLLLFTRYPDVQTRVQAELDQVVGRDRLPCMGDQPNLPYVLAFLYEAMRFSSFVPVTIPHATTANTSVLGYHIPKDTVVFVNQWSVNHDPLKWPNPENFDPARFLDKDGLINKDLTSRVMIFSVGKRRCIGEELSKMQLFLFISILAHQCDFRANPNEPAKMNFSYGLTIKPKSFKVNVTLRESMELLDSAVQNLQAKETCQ

Cytochrome P450 1A2 [3] = target: T3, Cytochrome P450 1A2 (Homo sapiens, UniProt P05177); assay: Inhibition of human CYP1A2 expressed in yeast microsomal membranes using 3-cyano-7-ethoxycoumarin as substrate measured after 10 mins by fluorescence assay; type: ADME, cell membranes, Microsomal Membrane
T3 sequence (P05177 whole entry): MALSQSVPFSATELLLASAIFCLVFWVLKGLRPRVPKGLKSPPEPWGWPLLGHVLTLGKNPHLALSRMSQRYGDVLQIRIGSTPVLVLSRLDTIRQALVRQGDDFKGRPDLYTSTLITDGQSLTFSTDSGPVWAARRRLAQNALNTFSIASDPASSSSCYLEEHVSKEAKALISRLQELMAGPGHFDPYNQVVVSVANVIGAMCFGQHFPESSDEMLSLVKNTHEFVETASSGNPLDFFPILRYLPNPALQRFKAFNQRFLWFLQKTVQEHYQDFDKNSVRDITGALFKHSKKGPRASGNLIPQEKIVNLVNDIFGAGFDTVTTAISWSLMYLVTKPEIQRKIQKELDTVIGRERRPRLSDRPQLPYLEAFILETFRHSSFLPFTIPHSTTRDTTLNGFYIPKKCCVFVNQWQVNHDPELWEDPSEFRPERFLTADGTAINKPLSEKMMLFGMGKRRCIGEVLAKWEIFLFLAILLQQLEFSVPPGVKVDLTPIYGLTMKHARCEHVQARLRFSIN

Cytochrome P450 2D6 [4] = target: T4, Cytochrome P450 2D6 (Homo sapiens, UniProt P10635); assay: Inhibition of human CYP2D6 expressed in yeast microsomal membranes using 7-ethoxy-methyloxy-3-cyanocoumarin as substrate measured after 10 mins by fluorescence assay; type: ADME, cell membranes, Microsomal Membrane
T4 sequence (P10635 whole entry): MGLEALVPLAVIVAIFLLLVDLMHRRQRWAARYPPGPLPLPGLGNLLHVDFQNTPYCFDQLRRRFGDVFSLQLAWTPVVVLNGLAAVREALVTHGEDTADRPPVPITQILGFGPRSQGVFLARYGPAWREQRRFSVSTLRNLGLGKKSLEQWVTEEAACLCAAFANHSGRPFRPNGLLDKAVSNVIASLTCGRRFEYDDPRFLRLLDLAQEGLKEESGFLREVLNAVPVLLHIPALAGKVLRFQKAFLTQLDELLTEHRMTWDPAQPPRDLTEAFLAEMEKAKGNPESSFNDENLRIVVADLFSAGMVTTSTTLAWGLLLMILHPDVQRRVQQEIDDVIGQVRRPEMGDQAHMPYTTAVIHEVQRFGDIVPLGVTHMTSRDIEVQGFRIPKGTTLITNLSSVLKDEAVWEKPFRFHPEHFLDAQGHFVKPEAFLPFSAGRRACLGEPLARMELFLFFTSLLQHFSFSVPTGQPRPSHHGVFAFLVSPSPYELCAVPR

Cytochrome P450 2C9 [5] = target: T5, Cytochrome P450 2C9 (Homo sapiens, UniProt P11712); assay: Inhibition of human CYP2C9 expressed in yeast microsomal membranes using 3-cyano-7-ethoxycoumarin as substrate measured after 10 mins by fluorescence assay; type: ADME, cell membranes, Microsomal Membrane
T5 sequence (P11712 whole entry): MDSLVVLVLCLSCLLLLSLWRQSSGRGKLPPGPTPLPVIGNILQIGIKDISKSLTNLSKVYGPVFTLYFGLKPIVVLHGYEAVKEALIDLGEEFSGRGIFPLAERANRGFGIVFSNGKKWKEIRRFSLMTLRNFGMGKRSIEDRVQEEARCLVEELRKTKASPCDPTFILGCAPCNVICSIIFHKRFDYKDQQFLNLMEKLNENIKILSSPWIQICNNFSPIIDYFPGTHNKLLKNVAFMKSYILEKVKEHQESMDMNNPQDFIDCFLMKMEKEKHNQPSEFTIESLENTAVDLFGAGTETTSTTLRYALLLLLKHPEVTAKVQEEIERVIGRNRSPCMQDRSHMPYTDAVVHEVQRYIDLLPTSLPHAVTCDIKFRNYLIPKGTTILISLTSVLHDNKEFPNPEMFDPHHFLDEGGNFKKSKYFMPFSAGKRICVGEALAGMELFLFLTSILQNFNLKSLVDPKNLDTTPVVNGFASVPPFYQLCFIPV

Cytochrome P450 2C19 [6] = target: T6, Cytochrome P450 2C19 (Homo sapiens, UniProt P33261); assay: Inhibition of human CYP2C19 expressed in yeast microsomal membranes using 3-cyano-7-ethoxycoumarin as substrate measured after 10 mins by fluorescence assay; type: ADME, cell membranes, Microsomal Membrane
T6 sequence (P33261 whole entry): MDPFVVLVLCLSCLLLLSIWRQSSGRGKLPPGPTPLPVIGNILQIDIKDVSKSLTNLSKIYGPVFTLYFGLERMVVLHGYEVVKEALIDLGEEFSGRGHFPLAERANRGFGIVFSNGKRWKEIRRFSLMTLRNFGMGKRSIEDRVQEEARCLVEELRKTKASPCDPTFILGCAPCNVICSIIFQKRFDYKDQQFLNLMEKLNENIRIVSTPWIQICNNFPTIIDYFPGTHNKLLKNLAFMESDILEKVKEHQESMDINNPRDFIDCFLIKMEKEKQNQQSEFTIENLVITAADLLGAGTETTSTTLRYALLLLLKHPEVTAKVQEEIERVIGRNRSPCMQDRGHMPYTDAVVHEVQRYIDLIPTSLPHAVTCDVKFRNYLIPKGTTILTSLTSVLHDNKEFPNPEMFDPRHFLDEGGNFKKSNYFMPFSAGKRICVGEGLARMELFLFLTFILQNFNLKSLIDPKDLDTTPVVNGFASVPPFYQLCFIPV

Cytochrome P450 3A4 [7] = target: T7, Cytochrome P450 3A4 (Homo sapiens, UniProt P08684); assay: Inhibition of human CYP3A4 expressed in yeast microsomal membranes using dibenzylfluorescein as substrate measured after 10 mins by fluorescence assay; type: ADME, cell membranes, Microsomal Membrane
T7 sequence (P08684 whole entry): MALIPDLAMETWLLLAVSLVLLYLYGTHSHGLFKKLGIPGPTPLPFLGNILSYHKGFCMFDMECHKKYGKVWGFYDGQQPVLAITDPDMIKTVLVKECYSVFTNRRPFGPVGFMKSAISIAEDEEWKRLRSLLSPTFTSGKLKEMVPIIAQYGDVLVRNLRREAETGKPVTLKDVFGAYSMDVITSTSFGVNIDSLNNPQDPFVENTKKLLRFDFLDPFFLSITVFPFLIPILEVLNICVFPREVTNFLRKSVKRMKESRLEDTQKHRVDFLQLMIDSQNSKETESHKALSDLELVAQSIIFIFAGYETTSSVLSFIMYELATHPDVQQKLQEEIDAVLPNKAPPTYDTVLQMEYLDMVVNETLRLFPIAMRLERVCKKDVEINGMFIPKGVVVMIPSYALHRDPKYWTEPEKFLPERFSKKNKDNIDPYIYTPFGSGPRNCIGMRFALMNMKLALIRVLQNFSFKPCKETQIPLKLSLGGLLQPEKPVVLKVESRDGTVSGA

Cytochrome P450 1A1 [8] = target: T1, Cytochrome P450 1A1; assay: Inhibition of recombinant human CYP1A1 expressed in HEK293 cells using 7-ethoxyresorufin as substrate pretreated for 30 mins followed by substrate addition measured for 60 mins by fluorescence assay; type: cell-based
Cytochrome P450 1B1 [9] = target: T2, Cytochrome P450 1B1; assay: Inhibition of recombinant human CYP1B1 expressed in HEK293 cells using 7-ethoxyresorufin as substrate pretreated for 30 mins followed by substrate addition measured for 60 mins by fluorescence assay; type: cell-based
Cytochrome P450 1A2 [10] = target: T3, Cytochrome P450 1A2; assay: Inhibition of recombinant human CYP1A2 expressed in HEK293 cells using 3-cyano-7-ethoxycoumarin as substrate pretreated for 30 mins followed by substrate addition measured for 60 mins by fluorescence assay; type: ADME
Cytochrome P450 2D6 [11] = target: T4, Cytochrome P450 2D6; assay: Inhibition of recombinant human CYP2D6 expressed in HEK293 cells using 7-ethoxy-methyloxy-3-cyanocoumarin as substrate pretreated for 30 mins followed by substrate addition measured for 60 mins by fluorescence assay; type: ADME, cell-based
Cytochrome P450 2C9 [12] = target: T5, Cytochrome P450 2C9; assay: Inhibition of recombinant human CYP2C9 expressed in HEK293 cells using 3-cyano-7-ethoxycoumarin as substrate pretreated for 30 mins followed by substrate addition measured for 60 mins by fluorescence assay; type: ADME
Cytochrome P450 2C19 [13] = target: T6, Cytochrome P450 2C19; assay: Inhibition of recombinant human CYP2C19 expressed in HEK293 cells using 3-cyano-7-ethoxycoumarin as substrate pretreated for 30 mins followed by substrate addition measured for 60 mins by fluorescence assay; type: ADME
Cytochrome P450 3A4 [14] = target: T7, Cytochrome P450 3A4; assay: Inhibition of recombinant human CYP3A4 expressed in HEK293 cells using dibenzylfluorescein as substrate pretreated for 30 mins followed by substrate addition measured for 60 mins by fluorescence assay; type: ADME
Homo sapiens [15] = organism: Homo sapiens; assay: Selectivity ratio of IC50 for recombinant human CYP1B1 expressed in HEK293 cells to IC50 for recombinant human CYP1A1 expressed in HEK293 cells; type: cell-based
Homo sapiens [16] = organism: Homo sapiens; assay: Selectivity ratio of IC50 for recombinant human CYP1A2 expressed in HEK293 cells to IC50 for recombinant human CYP1A1 expressed in HEK293 cells; type: cell-based
[17] = target: T8, Aryl hydrocarbon receptor (Homo sapiens, UniProt P35869); assay: Antagonist activity at recombinant human eGFP-fused Ahr expressed in yeast cells co-expressing ARNT assessed as inhibition of benzo(a)pyrene-induced Ahr activation at 1 uM measured after 18 hrs by fluorescence assay; type: cell-based
T8 sequence (P35869 whole entry): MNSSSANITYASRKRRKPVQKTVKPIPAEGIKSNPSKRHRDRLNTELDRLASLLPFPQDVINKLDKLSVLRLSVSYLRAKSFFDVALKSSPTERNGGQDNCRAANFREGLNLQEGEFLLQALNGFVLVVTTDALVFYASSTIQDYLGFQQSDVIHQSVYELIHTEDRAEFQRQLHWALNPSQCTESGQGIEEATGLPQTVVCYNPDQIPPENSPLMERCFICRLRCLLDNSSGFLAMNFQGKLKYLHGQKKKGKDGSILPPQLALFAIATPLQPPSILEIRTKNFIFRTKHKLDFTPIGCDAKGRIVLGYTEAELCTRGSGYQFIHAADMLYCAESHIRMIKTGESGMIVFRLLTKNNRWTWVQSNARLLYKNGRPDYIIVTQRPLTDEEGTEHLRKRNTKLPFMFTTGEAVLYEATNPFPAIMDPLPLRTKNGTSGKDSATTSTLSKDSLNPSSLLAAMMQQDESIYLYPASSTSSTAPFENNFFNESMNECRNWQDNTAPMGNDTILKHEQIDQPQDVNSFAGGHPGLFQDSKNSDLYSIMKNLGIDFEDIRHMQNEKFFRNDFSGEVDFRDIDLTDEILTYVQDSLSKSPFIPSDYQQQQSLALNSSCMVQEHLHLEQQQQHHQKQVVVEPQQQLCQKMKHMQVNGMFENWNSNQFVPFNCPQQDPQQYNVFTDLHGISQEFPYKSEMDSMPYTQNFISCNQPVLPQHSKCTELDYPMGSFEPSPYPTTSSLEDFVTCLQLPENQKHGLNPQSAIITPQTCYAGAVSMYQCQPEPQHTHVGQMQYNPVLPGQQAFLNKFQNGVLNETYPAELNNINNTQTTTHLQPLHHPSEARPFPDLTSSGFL

Row | SMILES | IC50 (Cytochrome P450 1A1 [1]) [µM] | IC50 (Cytochrome P450 1B1 [2]) [µM] | IC50 (Cytochrome P450 1A2 [3]) [µM] | IC50 (Cytochrome P450 2D6 [4]) [µM] | IC50 (Cytochrome P450 2C9 [5]) [µM] | IC50 (Cytochrome P450 2C19 [6]) [µM] | IC50 (Cytochrome P450 3A4 [7]) [µM] | IC50 (Cytochrome P450 1A1 [8]) [µM] | IC50 (Cytochrome P450 1B1 [9]) [µM] | IC50 (Cytochrome P450 1A2 [10]) [µM] | IC50 (Cytochrome P450 2D6 [11]) [µM] | IC50 (Cytochrome P450 2C9 [12]) [µM] | IC50 (Cytochrome P450 2C19 [13]) [µM] | IC50 (Cytochrome P450 3A4 [14]) [µM] | Ratio IC50 (Homo sapiens [15]) | Ratio IC50 (Homo sapiens [16]) | inhibition (INH) [17]
1 | CCOc1c(OC)cc(/C=C/C(=O)c2ccncc2)cc1OC | 0.23 | 0.698 | 2.58 | 12 | > 20 | > 20 | > 20 | 0.28 | 0.61 | 2.21 | > 10 | > 10 | > 10 | > 10 | – | – | –
2 | CCOc1cc(/C=C/C(=O)c2ccncc2)cc(OCC)c1OCC | 0.092 | 8.62 | 1.19 | 14 | > 20 | > 20 | > 20 | 0.092 | 9.92 | 1.09 | > 10 | > 10 | > 10 | > 10 | < 10 | < 10 | –
3 | CCOc1cc(/C=C/C(=O)c2ccncc2)cc(OC)c1OC | 0.063 | 3.81 | 1.32 | 17 | > 20 | > 20 | > 20 | 0.063 | 4.76 | 1.53 | > 10 | > 10 | > 10 | > 10 | < 10 | < 10 | –
4 | COc1ccc(/C=C/C(=O)c2ccncc2)cc1 | 6.31 | 7 | 12 | 15 | > 20 | > 20 | > 20 | 6.61 | 8.52 | 12 | > 10 | > 10 | > 10 | > 10 | – | – | –
5 | COc1ccc(/C=C/C(=O)c2ccncc2)c(OC)c1OC | 1.41 | 0.032 | 0.104 | 11 | > 20 | > 20 | > 20 | 1.33 | 0.022 | 0.2 | > 10 | > 10 | > 10 | > 10 | – | – | Active
6 | COc1ccccc1/C=C/C(=O)c1ccncc1 | 0.57 | 0.048 | 0.032 | 11 | > 20 | > 20 | > 20 | 0.61 | 0.06 | 0.032 | > 10 | > 10 | > 10 | > 10 | – | – | –
